Test results as given in paper PMC12670160, “A drug-repurposing screen of FDA- and EMA-approved drugs identifies two NF-κB inhibitors active against eumycetoma” (Journal of Antimicrobial Chemotherapy, 2025).
Values after ≈ are worked out from the molar mass of the structure shown. Counter-ions that a name gives are not always drawn. Like-named read-outs stand apart in the source and are kept apart here.

Assays:
M. mycetomatis [1] = test: In vitro susceptibility, averages over M. mycetomatis isolates (average metabolic activity at 2 µM, mean MIC); format: cell-based, Madurella mycetomatis; conditions: for Average metabolic activity at 2 µM (%): 4 days at 37°C, CellTiter-Glo, average of 3 isolates, 20% or below = inhibition
M. mycetomatis strain P1 = test: IC50 and MIC determination, CellTiter-Glo, strain P1; format: cell-based, Madurella mycetomatis
M. mycetomatis strain I1 = test: IC50 and MIC determination, CellTiter-Glo, strain I1; format: cell-based, Madurella mycetomatis
[2] = tested on: M. mycetomatis strain mm55; test: IC50 and MIC determination, CellTiter-Glo, strain mm55; format: cell-based, Madurella mycetomatis; conditions: for IC50: concentration inhibiting 50% of fungal hyphae growth; for MIC: concentration with complete growth inhibition
M. mycetomatis [3] = test: In vitro susceptibility, averages over M. mycetomatis isolates (average metabolic activity at 2 µM, mean MIC); format: cell-based; conditions: Madurella mycetomatis, 96 h, 4 days at 37°C, CellTiter-Glo, average of 3 isolates, 20% or below = inhibition
Protocol: M. mycetomatis isolate MM55 was used to screen the Oncode library. This strain was kindly provided by Prof. […] The three M. mycetomatis isolates were identified by ITS sequencing and maintained at −80°C at Erasmus MC. Prior to in vitro screening, isolates were cultured on Sabouraud agar plates (BD, Erembodegem, Belgium) at 37°C.
The Oncode Drug Repurposing library was based on the drug repurposing library from the Drug Repurposing Hub of the Broad Institute and recreated by the Oncode institute.[13] […] Each well of the 384-well plates contained 0.6 µL of a 200 µM stock concentration of compound, resulting in a final concentration of 2 µM when the fungus was added. […] Furthermore, this concentration could also be reached in the G. mellonella larvae.[8],[11] The prepared 384-well plates were transferred on dry ice to the Erasmus MC and stored at −80°C until they were screened.
Each plate also contained a growth control (60 µL of M. mycetomatis hyphal suspension, plus 0.6 µL of DMSO) and a negative control (60 µL of culture medium, plus 0.6 µL of DMSO). Plates were then incubated for 4 days at 37°C, after which 30 µL of CellTiter-Glo 3D Cell Viability reagent was added to every well.[19] After 25 min of incubation at room temperature, the luminescence was measured with a CytoFluor Series 4000 luminometer (PerSeptive Biosystems, Framingham, MA, USA). To determine the metabolic activity, the following formula was used:
Percentagemetabolicactivity=(Absorbancetestluminensence−AbsorbanceNCluminensence/AbsorbanceGCluminensence−AbsorbanceNCluminensence)×100
where, GC is growth control and NC is negative control. The luminescence measured for the GC is considered as 100% metabolic activity. The luminescence for the NC is considered as 0% metabolic activity.

[4] = tested on: M. mycetomatis MM55-infected G. mellonella larvae; test: Therapeutic efficacy in M. mycetomatis-infected G. mellonella larvae (survival, log-rank); format: in vivo, Galleria mellonella
Protocol: (§1) For in vivo experiments, sixth-week instar G. mellonella larvae were purchased from Blue-Lagoon, Maassluis, The Netherlands. The larvae were raised and kept in the dark at room temperature. Larvae without any discoloration and weighing around 500 mg were selected for experiments.
The wet weight was determined and 10 mL of PBS per gram of mycelia was added. The suspension was then sonicated for 2 min to achieve a particle size of 10 µm. The fungal suspension (4 mg/40 µL) was injected into the last left pro-leg of a healthy G. mellonella larva with an insulin 29G U-100 needle to reach a final inoculum of 4 mg/larva. Larvae were placed in Petri dishes containing Whatman paper in a 37°C incubator.
A control group was also included in which M. mycetomatis-infected larvae were treated with PBS or with 1 mg/kg amphotericin B (Fungizone, Bristol Myers Squibb, Utrecht, The Netherlands). […] The treatment was repeated at 28 h post infection and 52 h post infection via different prolegs. The infection was monitored for 10 days.
To compare the survival rates between PBS treatment control and the different experimental groups a log-rank test was performed. All data were processed and performed in GraphPad Prism 10.

[5] = tested on: healthy uninfected G. mellonella larvae; conditions: for Toxicity in G. mellonella larvae at concentrations as low as 0.5 µM: tested at 20, 10, 5, 1 and 0.5 µM
Protocol: as §1
To determine the toxicity, 15 healthy uninfected larvae were injected with 20 µL of 20 µM compound as previously described.[16] […] As a control, a separate group of larvae were injected with 20 µL of PBS. Larvae were housed in Petri dishes with Whatman paper at 37°C in the dark. Survival was monitored for 10 days.

[6] = 20 µL of 20 µM at 4, 28 and 52 h post infection, 10 days
[7] = 20 µL of 10 µM at 4, 28 and 52 h post infection, 10 days
[8] = 20 µL of 20 µM injected, 10 day observation, toxic if more than 20% of larvae died

Row | Compound | IC50 (M. mycetomatis strain P1; Madurella mycetomatis, P1) [µM] | MIC (M. mycetomatis strain P1; Madurella mycetomatis, P1) [µM] | IC50 (M. mycetomatis strain I1; Madurella mycetomatis, I1) [µM] | MIC (M. mycetomatis strain I1; Madurella mycetomatis, I1) [µM] | IC50 ([2]; Madurella mycetomatis) [µM] | MIC ([2]; Madurella mycetomatis) [µM] | activity at 2 µM (M. mycetomatis [3]) [%] | other results
1 | CCCCC(CC)CNC(=N)NC(=N)NCCCCCCNC(=N)NC(=N)NCC(CC)CCCC (centres unmarked) [Alexidine dihydrochloride] | 1.78 | > 2 | 0.8 | > 2 | 1.32 | 2 | 4.4 | MIC (M. mycetomatis [1]; Madurella mycetomatis, mean/average over strains MM55, P1 and I1): > 2 µM
2 | Cc1ccc2c(Br)cc(Br)c(OC(=O)c3ccccc3)c2n1 [Broxaldine] | 0.63 | 1 (≈ 0.421 µg/mL) | 1.31 | 2 (≈ 0.842 µg/mL) | 1.25 | 2 (≈ 0.842 µg/mL) | 4.8 | Survival of M. mycetomatis-infected larvae versus PBS [4, 6]: No prolonged survival; Toxicity in G. mellonella larvae at 20 µM ([5]; in vivo): not toxic
3 | Oc1c(Br)cc(Br)c2cccnc12 [Broxyquinoline] | 0.56 | 2 (≈ 0.606 µg/mL) | 1.29 | 2 (≈ 0.606 µg/mL) | 1.6 | 2 (≈ 0.606 µg/mL) | 3.3 | Survival of M. mycetomatis-infected larvae versus PBS [4, 6]: No prolonged survival; Toxicity in G. mellonella larvae at 20 µM ([5]; in vivo): not toxic
4 | Oc1c(I)cc(Cl)c2cccnc12 [Clioquinol] | 0.38 | 0.5 (≈ 0.153 µg/mL) | 1.7 | 2 (≈ 0.611 µg/mL) | 1.2 | 2 (≈ 0.611 µg/mL) | 0 | Survival of M. mycetomatis-infected larvae versus PBS [4, 6]: No prolonged survival; Toxicity in G. mellonella larvae at 20 µM ([5]; in vivo): not toxic
5 | C=C1CCN([C@H](C)[C@](O)(Cn2cncn2)c2ccc(F)cc2F)CC1 [Efinaconazole] | < 0.03 | 0.03 (≈ 0.0105 µg/mL) | 0.05 | 0.06 (≈ 0.0209 µg/mL) | 0.04 | 0.06 (≈ 0.0209 µg/mL) | 0 | 
6 | C=CCOC(Cn1ccnc1)c1ccc(Cl)cc1Cl (centres unmarked) [Enilconazole sulphate] | 0.56 | 1 | 0.42 | 0.5 | 1.25 | 2 | 1.3 | 
7 | Fc1ccc(C(c2ccccc2)(c2ccccc2F)n2ccnc2)cc1 (centres unmarked) [Flutrimazole] | 0.37 | 0.5 (≈ 0.173 µg/mL) | 0.42 | 0.5 (≈ 0.173 µg/mL) | 0.92 | 2 (≈ 0.693 µg/mL) | 0 | 
8 | C[C@@H](c1nc(-c2ccc(C#N)cc2)cs1)[C@](O)(Cn1cncn1)c1cc(F)ccc1F [Isavuconazole] | < 0.03 | 0.03 (≈ 0.0131 µg/mL) | 0.05 | 0.06 (≈ 0.0262 µg/mL) | 0.43 | 1 (≈ 0.437 µg/mL) | 2.1 | 
9 | Clc1ccc(C(Cn2ccnc2)OCc2c(Cl)cccc2Cl)c(Cl)c1 (centres unmarked) [Isoconazole nitrate (Travogen), Isoconazole nitrate] | 0.06 | 0.5 | 0.36 | 0.5 | 1.42 | 2 | 1.2 | 
10 | Clc1ccc(COC(Cn2ccnc2)c2ccc(Cl)cc2Cl)c(Cl)c1 (centres unmarked) [Miconazole nitrate] |  | 0.5 |  | 0.06 |  | 1 | 1 | 
11 | CC(=O)[O][Hg][c]1ccccc1 [Phenylmercuric acetate] |  |  |  |  |  |  |  | Average metabolic activity at 2 µM (%) (M. mycetomatis [1]): 2.0%; IC50 (M. mycetomatis strain P1; strain P1): < 0.03 µM; MIC (M. mycetomatis strain P1; strain P1): 0.03 µM; IC50 (M. mycetomatis strain I1; strain I1): 0.45 µM; MIC (M. mycetomatis strain I1; strain I1): 0.50 µM; Toxicity in G. mellonella larvae at concentrations as low as 0.5 µM ([5]; 10 day observation): toxic; IC50 [2]: 1.12 µM; MIC [2]: 2.00 µM
12 | Clc1ccc(C(Cn2ccnc2)OCc2ccsc2Cl)c(Cl)c1 (centres unmarked) [Tioconazole] | 0.39 | 0.5 (≈ 0.194 µg/mL) | 0.33 | 0.5 (≈ 0.194 µg/mL) | 1.24 | 2 (≈ 0.775 µg/mL) | 3.2 | 
13 | CC(C)(C)c1cc(C=C(C#N)C#N)cc(C(C)(C)C)c1O [Tyrphostin 9] | 1.22 | 2 (≈ 0.565 µg/mL) | 0.78 | 1 (≈ 0.282 µg/mL) | 1.36 | 2 (≈ 0.565 µg/mL) | 1.5 | Survival of M. mycetomatis-infected larvae versus PBS [4, 7]: Decreased survival; Toxicity in G. mellonella larvae at 20 µM [5, 8]: toxicity was noted
14 | C[C@@H]1[C@H](O)[C@@H](C)/C=C/C=C/C=C/C=C/C=C/C=C/C=C/[C@H](O[C@@H]2O[C@H](C)[C@@H](O)[C@H](N)[C@@H]2O)C[C@@H]2O[C@](O)(C[C@@H](O)C[C@@H](O)[C@H](O)CC[C@@H](O)C[C@@H](O)CC(=O)O[C@H]1C)C[C@H](O)[C@H]2C(=O)O [amphotericin B] |  |  |  |  |  |  |  | Survival of M. mycetomatis-infected larvae versus PBS ([4]; 1 mg/kg amphotericin B, infected treated control): prolonged the survival
15 | OCCCNc1cc(-c2ccnc(Nc3cccc(Cl)c3)n2)ccn1 [cgp60474] | 0.64 | 1 (≈ 0.356 µg/mL) | 0.81 | 1 (≈ 0.356 µg/mL) | 1.55 | 2 (≈ 0.712 µg/mL) | 7.4 | Survival of M. mycetomatis-infected larvae versus PBS [4, 6]: No prolonged survival; Toxicity in G. mellonella larvae at 20 µM ([5]; in vivo): not toxic
16 | C/C(=N\NC(=S)N1CCC1)c1ccccn1 [nsc319726] | 0.74 | 2 (≈ 0.469 µg/mL) | 1.04 | 2 (≈ 0.469 µg/mL) | 1.61 | 2 (≈ 0.469 µg/mL) | 4.1 | Survival of M. mycetomatis-infected larvae versus PBS [4, 7]: No prolonged survival; Toxicity in G. mellonella larvae at 20 µM [5, 8]: toxicity was noted
17 | Bleomycin |  |  |  |  |  |  |  | Average metabolic activity at 2 µM (%) (M. mycetomatis [1]): 1.6%; IC50 (M. mycetomatis strain P1; strain P1): < 0.03 µM; MIC (M. mycetomatis strain P1; strain P1): 0.03 µM; IC50 (M. mycetomatis strain I1; strain I1): 0.2 µM; MIC (M. mycetomatis strain I1; strain I1): 0.25 µM; Toxicity in G. mellonella larvae at concentrations as low as 0.5 µM ([5]; 10 day observation): toxic; IC50 [2]: 0.21 µM; MIC [2]: 0.50 µM
